In patent US20240417412A1, “HETEROCYCLIC COMPOUNDS AND METHODS OF USE” (AMGEN INC., priority 2022, published 2024):
Read-outs that look alike come from different tables or passages of the source. Blank lines part the entries; values can stand above or below the compound they belong to.

Tests used:
KRAS G12D [1] = biological target: KRAS G12D (Homo sapiens, UniProt P01116, G12D); assay: KRAS G12D TR-FRET Assay; conditions: His-tagged KRAS G12D, biotinylated KRPep-2d, read-out: KRAS G12D Binding IC50
Protocol: The plate was incubated for 30 minutes at room temperature. Biotinylated KRPep-2d substrate (Amgen) was diluted to 20 nM in Assay Buffer and 2 uL was added to all wells and incubated for 1 hour at room temperature. Detection Reagent (0.4 nM LANCE Eu-W1024 Anti-6×His (Perkin Elmer AD0401), 5 nM streptavidin-d2 (Cisbio 610SADLA)) was prepared in Assay Buffer, then 4 μL was added to the plate and incubated for 1 hour at room temperature.

p-ERK (AsPC-1 cells) = assay: Phospho-ERK1/2 MSD Assay; format: cell-based
Protocol: Sixteen hours prior to compound treatment, AsPC-1 cells were seeded in 96-well cell culture plates at a density of 25,000 cells/well and incubated at 37° C., 5% CO2. A compound dose-response titration was diluted in growth media, added to appropriate wells of a cell culture plate, and then incubated at 37° C., 5% CO2 for 2 hours. […] Phosphorylation of ERK1/2 in compound-treated lysates was assayed using Phospho-ERK1/2 Whole Cell Lysate kits (Meso Scale Discovery K151DWD) according to the manufacturer's protocol. Assay plates were read on a Meso Scale Discovery Sector Imager 6000, and data were analyzed using a 4-parameter logistic model to calculate IC50 values.

KRAS G12D [2] = biological target: KRAS G12D (Homo sapiens, UniProt P01116, C118A/G12D); assay: KRAS G12D Coupled Nucleotide Exchange Assay; format: biochemical; conditions: GDP-bound KRAS G12D/C118A, 2 hours pre-incubation, SOS-mediated nucleotide exchange, AlphaScreen
Protocol: The assay plates were then read on a PerkinElmer EnVision Multilabel Reader, using AlphaScreen® technology, and data were analyzed using a 4-parameter logistic model to calculate IC50 values.

[3] = Homo sapiens, ASPC1, 2 h, read-out: 2 h p-ERK (AsPC-1 cells), IC50 (μM), AsPC-1 cells, 2 hours compound treatment
[4] = read-out: 2 h p-ERK (AsPC-1 cells), IC50, AsPC-1 cells, 2 hours compound treatment

Chain of KRAS G12D (Homo sapiens, UniProt P01116, C118A/G12D) (P01116 1-169 isoform P01116-2 G12D/C118A): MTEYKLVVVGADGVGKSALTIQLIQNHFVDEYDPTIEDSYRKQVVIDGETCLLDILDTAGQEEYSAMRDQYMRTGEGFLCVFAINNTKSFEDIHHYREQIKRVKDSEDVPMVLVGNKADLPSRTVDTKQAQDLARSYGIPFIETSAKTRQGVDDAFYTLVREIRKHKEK
Chain of KRAS G12D (Homo sapiens, UniProt P01116, G12D) (P01116 1-188 isoform P01116-2 G12D): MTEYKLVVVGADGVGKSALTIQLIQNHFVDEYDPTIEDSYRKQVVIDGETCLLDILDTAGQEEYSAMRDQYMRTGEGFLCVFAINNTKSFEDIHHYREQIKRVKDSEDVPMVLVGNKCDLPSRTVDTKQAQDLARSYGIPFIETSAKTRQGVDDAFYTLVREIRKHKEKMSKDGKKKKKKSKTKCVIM

IC50 (KRAS G12D [1]): 4 nM
IC50 (p-ERK (AsPC-1 cells); [4]): 0.343 µM
IC50 (KRAS G12D [2]): 6 nM
Structure (SMILES): CCc1c(F)ccc2cc(O)cc(-c3ncc4c(N5CCCC6(C5)CC(C)(O)C6)nc(OC[C@@]56CCCN5C[C@H](F)C6)nc4c3F)c12 (single isomer, unassigned) [Example 56]

IC50 (KRAS G12D [1]): 6 nM
IC50 (p-ERK (AsPC-1 cells); [4]): 0.131 µM
IC50 (KRAS G12D [2]): 10 nM
Structure (SMILES): CCc1c(F)ccc2cc(O)cc(-c3ncc4c(N5CCCC6(C5)CC(C)(O)C6)nc(OC[C@@]56CCCN5C[C@H](F)C6)nc4c3F)c12 (single isomer, unassigned) [Example 57]

IC50 (KRAS G12D [1]): 1 nM
IC50 (p-ERK (AsPC-1 cells); [3]): 0.003 µM
IC50 (KRAS G12D [2]): 1 nM
Structure (SMILES): Oc1cc(-c2ncc3c(N4CCC[C@]5(CCO5)C4)nc(OC[C@@]45CCCN4C[C@H](F)C5)nc3c2F)c2c(Cl)c(F)ccc2c1 (single isomer, unassigned) [Example 58]

IC50 (KRAS G12D [1]): 3 nM
IC50 (p-ERK (AsPC-1 cells); [3]): 0.006 µM
IC50 (KRAS G12D [2]): 2 nM
Structure (SMILES): Oc1cc(-c2ncc3c(N4CCCC5(CCO5)C4)nc(OC[C@@]45CCCN4C[C@H](F)C5)nc3c2F)c2c(Cl)cccc2c1 (single isomer, unassigned) [Example 59]

IC50 (KRAS G12D [1]): 6 nM
IC50 (p-ERK (AsPC-1 cells); [3]): 0.019 µM
IC50 (KRAS G12D [2]): 3 nM
Structure (SMILES): CCc1c(F)ccc2cc(O)cc(-c3ncc4c(N5CCCC6(CCO6)C5)nc(OC[C@@H]5C[C@@H](F)CN5C)nc4c3F)c12 (single isomer, unassigned) [Example 60]

IC50 (KRAS G12D [1]): 10 nM
IC50 (p-ERK (AsPC-1 cells); [3]): 0.007 µM
IC50 (KRAS G12D [2]): 4 nM
Structure (SMILES): CCc1c(F)ccc2cc(O)cc(-c3ncc4c(N5CCCC6(CCO6)C5)nc(OC[C@@]56CCCN5C[C@H](F)C6)nc4c3C)c12 (single isomer, unassigned) [Example 61]

IC50 (KRAS G12D [1]): 4 nM
IC50 (p-ERK (AsPC-1 cells); [3]): 0.026 µM
IC50 (KRAS G12D [2]): 2 nM
Structure (SMILES): CCc1c(F)ccc2cccc(-c3ncc4c(N5CCCC6(CNC(=O)O6)C5)nc(OC[C@@]56CCCN5C[C@H](F)C6)nc4c3F)c12 (single isomer, unassigned) [Example 63]

IC50 (KRAS G12D [1]): 3 nM
IC50 (p-ERK (AsPC-1 cells); [3]): 0.03 µM
IC50 (KRAS G12D [2]): 1 nM
Structure (SMILES): CCc1c(F)ccc2cc(O)cc(-c3ncc4c(N5CCCC6(CCC(=O)O6)C5)nc(OC[C@@]56CCCN5C[C@H](F)C6)nc4c3F)c12 (single isomer, unassigned) [Example 66]

IC50 (KRAS G12D [1]): 4 nM
IC50 (p-ERK (AsPC-1 cells); [4]): 0.06 µM
IC50 (KRAS G12D [2]): 2 nM
Structure (SMILES): CCc1c(F)ccc2cc(O)cc(-c3ncc4c(N5CCCC6(COC(=O)O6)C5)nc(OC[C@@]56CCCN5C[C@H](F)C6)nc4c3F)c12 (single isomer, unassigned) [Example 67]

IC50 (KRAS G12D [1]): 23 nM
IC50 (p-ERK (AsPC-1 cells); [4]): 1.58 µM
IC50 (KRAS G12D [2]): 11 nM
Structure (SMILES): CCc1c(F)ccc2cc(O)cc(-c3ncc4c(N5CCCC6(COC(=O)O6)C5)nc(OC[C@@]56CCCN5C[C@H](F)C6)nc4c3F)c12 (single isomer, unassigned) [Example 68]

Second part, the compound before the results:

Structure (SMILES): Oc1cc(Cl)c(C2CC2)c(-c2ncc3c(N4CCCC5(CC(O)C5)C4)nc(OC[C@@]45CCCN4C[C@H](F)C5)nc3c2F)c1 (single isomer, unassigned) [Example 14]
IC50 (KRAS G12D [1]): 1 nM
IC50 (p-ERK (AsPC-1 cells); [3]): 0.164 µM
IC50 (KRAS G12D [2]): 1 nM

Structure (SMILES): C#Cc1c(F)ccc2cc(O)cc(-c3ncc4c(N5CCCC6(CNC(=O)O6)C5)nc(OC[C@@]56CCCN5C[C@H](F)C6)nc4c3F)c12 (single isomer, unassigned) [Example 17]
IC50 (KRAS G12D [1]): 1 nM
IC50 (p-ERK (AsPC-1 cells); [3]): 0.123 µM
IC50 (KRAS G12D [2]): 1 nM

Structure (SMILES): O=C1NCC2(CCCN(c3nc(OC[C@@]45CCCN4C[C@H](F)C5)nc4c(F)c(-c5cc(O)cc6ccc(F)c(F)c56)ncc34)C2)O1 (single isomer, unassigned) [Example 18]
IC50 (KRAS G12D [1]): 1 nM
IC50 (p-ERK (AsPC-1 cells); [3]): 0.31 µM
IC50 (KRAS G12D [2]): 1 nM

Structure (SMILES): CCc1cccc2cc(O)cc(-c3ncc4c(N5CCCC6(CCO6)C5)nc(OC[C@@]56CCCN5C[C@H](F)C6)nc4c3F)c12 (single isomer, unassigned) [Example 23]
IC50 (KRAS G12D [1]): 2 nM
IC50 (p-ERK (AsPC-1 cells); [3]): 0.011 µM
IC50 (KRAS G12D [2]): 3 nM

Structure (SMILES): Oc1cc(-c2ncc3c(N4CCCC5(CCO5)C4)nc(OC[C@@]45CCCN4C[C@H](F)C5)nc3c2F)c2c(F)c(F)ccc2c1 (single isomer, unassigned) [Example 24]
IC50 (KRAS G12D [1]): 1 nM
IC50 (p-ERK (AsPC-1 cells); [3]): 0.009 µM
IC50 (KRAS G12D [2]): 2 nM

Structure (SMILES): C#Cc1c(F)ccc2cc(O)cc(-c3ncc4c(N5CCCC6(CCO6)C5)nc(OC[C@@]56CCCN5C[C@H](F)C6)nc4c3F)c12 (single isomer, unassigned) [Example 25]
IC50 (KRAS G12D [1]): 1 nM
IC50 (p-ERK (AsPC-1 cells); [3]): 0.043 µM
IC50 (KRAS G12D [2]): 1 nM

Structure (SMILES): CCc1c(F)ccc2cc(O)cc(-c3ncc4c(N5CCCC6(CCS(=O)(=O)C6)C5)nc(OC[C@@]56CCCN5C[C@H](F)C6)nc4c3F)c12 (single isomer, unassigned) [Example 34]
IC50 (KRAS G12D [1]): 9 nM
IC50 (p-ERK (AsPC-1 cells); [4]): 2.19 µM
IC50 (KRAS G12D [2]): 12 nM

Structure (SMILES): CCc1c(F)ccc2cc(O)cc(-c3ncc4c(N5CCCC6(CCS(=O)(=O)C6)C5)nc(OC[C@@]56CCCN5C[C@H](F)C6)nc4c3F)c12 (single isomer, unassigned) [Example 35]
IC50 (KRAS G12D [1]): 2 nM
IC50 (p-ERK (AsPC-1 cells); [4]): 0.06 µM
IC50 (KRAS G12D [2]): 3 nM

Structure (SMILES): C#Cc1c(F)ccc2cc(O)cc(-c3ncc4c(N5CCCC6(CCS(=O)(=O)C6)C5)nc(OC[C@@]56CCCN5C[C@H](F)C6)nc4c3F)c12 (single isomer, unassigned) [Example 36]
IC50 (KRAS G12D [1]): 2 nM
IC50 (p-ERK (AsPC-1 cells); [3]): 1.11 µM
IC50 (KRAS G12D [2]): 2 nM

Structure (SMILES): CCc1c(F)ccc2cc(O)cc(-c3ncc4c(N5CCCC6(CNC6=O)C5)nc(OC[C@@]56CCCN5C[C@H](F)C6)nc4c3F)c12 (single isomer, unassigned) [Example 45]
IC50 (KRAS G12D [1]): 3 nM
IC50 (p-ERK (AsPC-1 cells); [3]): 0.161 µM
IC50 (KRAS G12D [2]): 5 nM

Structure (SMILES): CCc1c(F)ccc2cc(O)cc(-c3ncc4c(N5CCCC6(CCC6O)C5)nc(OC[C@@]56CCCN5C[C@H](F)C6)nc4c3F)c12 (single isomer, unassigned) [Example 49]
IC50 (KRAS G12D [1]): 7 nM
IC50 (p-ERK (AsPC-1 cells); [3]): 0.576 µM
IC50 (KRAS G12D [2]): 13 nM

Structure (SMILES): CCc1c(F)ccc2cc(O)cc(-c3ncc4c(N5CC(O)CC6(CCC6)C5)nc(OC[C@@]56CCCN5C[C@H](F)C6)nc4c3F)c12 (stereo partly drawn) [Example 1, 6-(7-(8-Ethyl-7-fluoro-3-hydroxynaphthalen-1-yl)-8-fluoro-2-(((2R,7aS)-2-fluorotetrahydro-1H-pyrrolizin-7a(5H)-yl)methoxy)pyrido[4,3-d]pyrimidin-4-yl)-6-azaspiro[3.5]nonan-8-ol]
IC50 (KRAS G12D [1]): 3 nM
IC50 (p-ERK (AsPC-1 cells); [3]): 0.329 µM
IC50 (KRAS G12D [2]): 4 nM

Structure (SMILES): CCc1c(F)ccc2cc(O)cc(-c3ncc4c(N5CCOC6(CC6)C5)nc(OC[C@@]56CCCN5C[C@H](F)C6)nc4c3F)c12 [Example 2, 5-Ethyl-6-fluoro-4-(8-fluoro-2-(((2R,7aS)-2-fluorotetrahydro-1H-pyrrolizin-7a(5H)-yl)methoxy)-4-(4-oxa-7-azaspiro[2.5]octan-7-yl)pyrido[4,3-d]pyrimidin-7-yl)naphthalen-2-ol]
IC50 (KRAS G12D [1]): 8 nM
IC50 (p-ERK (AsPC-1 cells); [3]): 0.523 µM
IC50 (KRAS G12D [2]): 4 nM

Structure (SMILES): CCc1c(F)ccc2cc(O)cc(-c3ncc4c(N5CCCC6(CC(=O)N6C)C5)nc(OC[C@@]56CCCN5C[C@H](F)C6)nc4c3F)c12 (stereo partly drawn) [Example 6, 6-(7-(8-Ethyl-7-fluoro-3-hydroxynaphthalen-1-yl)-8-fluoro-2-(((2R,7aS)-2-fluorotetrahydro-1H-pyrrolizin-7a(5H)-yl)methoxy)pyrido[4,3-d]pyrimidin-4-yl)-1-methyl-1,6-diazaspiro[3.5]nonan-2-one]
IC50 (KRAS G12D [1]): 8 nM
IC50 (p-ERK (AsPC-1 cells); [3]): 2.4 µM
IC50 (KRAS G12D [2]): 10 nM

Structure (SMILES): CCc1c(F)ccc2cc(O)cc(-c3ncc4c(N5CC(C)(O)CC6(CC6)C5)nc(OC[C@@]56CCCN5C[C@H](F)C6)nc4c3F)c12 (stereo partly drawn) [Example 19, 5-(7-(8-Ethyl-7-fluoro-3-hydroxynaphthalen-1-yl)-8-fluoro-2-(((2R,7aS)-2-fluorotetrahydro-1H-pyrrolizin-7a(5H)-yl)methoxy)pyrido[4,3-d]pyrimidin-4-yl)-7-methyl-5-azaspiro[2.5]octan-7-ol]
IC50 (KRAS G12D [1]): 5 nM
IC50 (p-ERK (AsPC-1 cells); [3]): 0.341 µM
IC50 (KRAS G12D [2]): 6 nM

Structure (SMILES): Oc1cc(Cl)c(C2CC2)c(-c2ncc3c(N4CCCC5(CCO5)C4)nc(OC[C@@]45CCCN4C[C@H](F)C5)nc3c2F)c1 (stereo partly drawn) [Example 26, 3-Chloro-4-cyclopropyl-5-(8-fluoro-2-(((2R,7aS)-2-fluorotetrahydro-1H-pyrrolizin-7a(5H)-yl)methoxy)-4-(1-oxa-6-azaspiro[3.5]nonan-6-yl)pyrido[4,3-d]pyrimidin-7-yl)phenol]
IC50 (KRAS G12D [1]): 1 nM
IC50 (p-ERK (AsPC-1 cells); [3]): 0.066 µM
IC50 (KRAS G12D [2]): 2 nM

Structure (SMILES): CCc1c(F)ccc2cc(O)cc(-c3ncc4c(N5CCCC6(CCCO6)C5)nc(OC[C@@]56CCCN5C[C@H](F)C6)nc4c3F)c12 (stereo partly drawn) [Example 27, 5-Ethyl-6-fluoro-4-(8-fluoro-2-(((2R,7aS)-2-fluorotetrahydro-1H-pyrrolizin-7a(5H)-yl)methoxy)-4-(1-oxa-7-azaspiro[4.5]decan-7-yl)pyrido[4,3-d]pyrimidin-7-yl) naphthalen-2-ol]
IC50 (KRAS G12D [1]): 4 nM
IC50 (p-ERK (AsPC-1 cells); [3]): 0.137 µM
IC50 (KRAS G12D [2]): 6 nM
